The source of these data is publication PMC11466185, “Mechanisms and efficacy of small molecule latency-promoting agents to inhibit HIV reactivation ex vivo” (JCI Insight, 2024).

Test [1] relates to HIV transcripts (TAR, LLTR, Pol, PolyA, TatRev). In words: Latency reversal assay: cell-associated HIV transcripts (RT-ddPCR) 24 hours after anti-CD3/CD28 activation of PBMCs from ART-suppressed PWH. In kind it is cell-based. Particulars: 24 hours; compared with activated DMSO; Figure 3C. The procedure:
We selected 26 small molecules targeting pathways implicated in HIV transcription or the blocks to HIV transcription underlying latency (Supplemental Table 1). […] Initial screening of all drugs was performed in freshly isolated PBMCs from 2 ART-suppressed individuals (Figure 1 and Supplemental Figure 2). PBMCs were cultured in the presence of individual drugs in DMSO or DMSO alone as a control, subsequently activated (anti-CD3/CD28), and harvested after 24 hours. […] The progression through different blocks to HIV transcription was quantified by measuring the levels of initiated (TAR), 5′ elongated (LLTR), midtranscribed/unspliced (Pol), completed (PolyA), and multiply spliced (TatRev) HIV transcripts. The levels of those HIV transcripts were normalized to 1 μg of total cellular RNA (to normalize for the effect of the drug on global cellular transcription) and expressed as a percentage of the activated DMSO control.
Figure 1 Screening of candidate LPAs by measuring the change in multiply spliced HIV transcripts after activation. Each drug was tested in PBMCs from 2 ART-suppressed study participants (denoted in the legend by varying symbol shapes). PBMCs were aliquoted into wells at 6 × 10^6 cells/well. After activation, the cells were cultured with antiretrovirals in the presence of individual drugs in DMSO or DMSO alone as control. All conditions were tested in the presence of CD3/28 T cell–activating beads, except for the unactivated DMSO condition. (A) After 24 hours, the viability was measured by trypan blue staining and then normalized to the levels of the activated DMSO (% of activated DMSO). Bars indicate medians. (B) Total cellular RNA was extracted, and the levels of multiply spliced HIV transcripts (TatRev) were measured by RT-ddPCR, normalized to 1 μg of total cellular RNA, and expressed as a percentage of the activated DMSO control (% of activated DMSO). RT-dd, reverse transcription digital droplet; vRNA, viral RNA; HAT, histone acetyltransferase.
The ability of our candidate LPAs to inhibit HIV transcriptional progression after activation was examined in PBMCs from a minimum of 7 PWH per drug tested (Figure 3). PBMCs were cultured in the presence of individual drugs in DMSO or in DMSO alone as a control, subsequently activated (anti-CD3/CD28), and harvested after 24 hours.
Each drug was tested in PBMCs from 7 ART-suppressed study participants. The PBMCs were aliquoted into wells at 6 × 10^6 cells/well. After activation, the cells were cultured with antiretrovirals in the presence of individual drugs in DMSO or DMSO alone as control. All conditions were tested in the presence of CD3/28 T cell–activating beads, except for the unactivated DMSO condition. After 24 hours, total RNA was extracted, and the progression through different stages of HIV transcription was quantified by measuring the levels of initiated (TAR), 5′ elongated (LLTR), midtranscribed/unspliced (Pol), completed (PolyA), and multiply spliced (TatRev) HIV transcripts. (A) The levels of all HIV transcripts were normalized to 1 μg of total cellular RNA and expressed as a percentage of the activated DMSO control (% of activated DMSO). Medians are shown as well as the individual values per study participant in different colors. (B–D) The effect of each drug on HIV transcriptional progression after activation was analyzed by the ratio of one HIV transcript to another. Ratios are independent of HIV infection frequency or normalization to cell numbers. Shown are the proportion of (B) all HIV transcripts that were elongated (LLTR/TAR), (C) elongated HIV transcripts that were completed spliced (PolyA/LLTR), and (D) completed transcripts that were multiply spliced (TatRev/PolyA).

A further test concerns PBMCs. In words: Total number of live cells (proliferation) by trypan blue staining at day 6. Particulars: day 6; Figure 6A. In kind it is cell-based, human. Here is the method:
Some of our candidate LPAs can block the effects of T cell activation, which could affect T cell proliferation. Therefore, we evaluated the extent to which variations in the level of infected cells may contribute to reductions in different HIV RNA transcripts. We measured the total number of viable cells (as a measure of proliferation) and the conserved U3-U5 LTR HIV DNA region (as a measure of total infection frequency) at day 6.
(A) After 6 days, the total number of live cells was measured by trypan blue staining and then normalized to the levels of the activated DMSO (% of activated DMSO). All conditions were tested in the presence of CD3^+/CD28^+ T cell–activating beads, except for the unactivated DMSO condition. Bars indicate medians, and different colors indicate individual study participants. Comparisons were performed using Wilcoxon’s signed-rank test. (B) Total cellular DNA was extracted, and the levels of U3-U5 HIV DNA were measured to quantify infection frequency at 6 days. HIV DNA levels were normalized to copies per 10^6 cells using the input of cellular DNA (assuming 1 μg of total DNA corresponds to 160,000 cells) and then normalized to the activated DMSO control (% of activated DMSO). Bars indicate medians, and different colors indicate individual study participants.

Take `CC(=O)N[C@@H]1CCC[C@H](C(=O)Nc2cc(-c3cnn4c3CC(C)(C)C4)c(Cl)cn2)C1` [AZD4573]: the “HIV transcriptional completion, ratio PolyA/LLTR” value in test [1] is given as “reduced”. `COc1ccc(-c2cc(=O)c3c(O)cc(O)c(-c4cc(-c5cc(=O)c6c(O)cc(O)cc6o5)ccc4OC)c3o2)cc1` [isoginkgetin]: the “Total live cell numbers (proliferation) compared with activated DMSO (in words)” value in the test with PBMCs was “significantly lower”.

As for `O=c1c(O)c(-c2ccc(O)c(O)c2)oc2cc(O)cc(O)c12` [quercetin], the “Total live cell numbers (proliferation) compared with activated DMSO (in words)” value with PBMCs is “did not change proliferation rates”.
